Calls of active or inactive are those of the source. The calls are words filed in the database; no cut-off is given here.
Legend:
Hordeum vulgare [1] = test: Inhibition of fatty acid synthesis in Hordeum vulgare (barley) assessed as inhibition of [14C]acetate incoporation in total fatty acids at 30 uM measured as total disintegration per g of fresh weight after 3 hr by liquid scintillation counting (reference value: 5.7 +/- 0.5 10^6 dpm x 10'6 g'1 fresh wt); assay type: functional
Cucumis sativus [2] = test: Inhibition of fatty acid synthesis in Cucumis sativus (cucumber) using [14C]malonate assessed as inhibition of [14C]-labeled 24C fatty acid production at 30 uM after 3 hr by liquid scintillation counting; assay type: functional, organism-based
Hordeum vulgare [3] = test: Inhibition of fatty acid synthesis in Hordeum vulgare (barley) using [14C]malonate assessed as inhibition of [14C]-labeled 24C fatty acid production at 30 uM after 3 hr by liquid scintillation counting; assay type: functional, organism-based
Cucumis sativus [4] = test: Inhibition of fatty acid synthesis in Cucumis sativus (cucumber) using [14C]malonate assessed as inhibition of [14C]-labeled 22C fatty acid production at 30 uM after 3 hr by liquid scintillation counting; assay type: functional, organism-based
Hordeum vulgare [5] = test: Inhibition of fatty acid synthesis in Hordeum vulgare (barley) using [14C]malonate assessed as inhibition of [14C]-labeled 22C fatty acid production at 30 uM after 3 hr by liquid scintillation counting; assay type: functional, organism-based
Cucumis sativus [6] = test: Inhibition of fatty acid synthesis in Cucumis sativus (cucumber) using [14C]malonate assessed as inhibition of [14C]-labeled 18C fatty acid production at 30 uM after 3 hr by liquid scintillation counting; assay type: functional, organism-based
Hordeum vulgare [7] = test: Inhibition of fatty acid synthesis in Hordeum vulgare (barley) using [14C]malonate assessed as inhibition of [14C]-labeled 18C fatty acid production at 30 uM after 3 hr by liquid scintillation counting; assay type: functional, organism-based
Hordeum vulgare [8] = test: Inhibition of fatty acid synthesis in Hordeum vulgare (barley) using [14C]acetate assessed as [14C]-labeled 22C fatty acid level at 30 uM after 3 hr by liquid scintillation counting (reference value: 5.5 +/- 0.2%); assay type: functional; parameters: scale not given: the % may be the effect or the level left
Cucumis sativus [9] = test: Inhibition of fatty acid synthesis in Cucumis sativus (cucumber) using [14C]acetate assessed as [14C]-labeled 20C fatty acid level at 30 uM after 3 hr by liquid scintillation counting (reference value: 5.1 +/- 0.7%); assay type: functional; parameters: scale not given: the % may be the effect or the level left
Cucumis sativus [10] = test: Inhibition of fatty acid synthesis in Cucumis sativus (cucumber) using [14C]malonate assessed as inhibition of [14C]-labeled 20C fatty acid production at 30 uM after 3 hr by liquid scintillation counting; assay type: functional, organism-based
Hordeum vulgare [11] = test: Inhibition of fatty acid synthesis in Hordeum vulgare (barley) using [14C]malonate assessed as inhibition of [14C]-labeled 20C fatty acid production at 30 uM after 3 hr by liquid scintillation counting; assay type: functional, organism-based
Cucumis sativus [12] = test: Inhibition of fatty acid synthesis in Cucumis sativus (cucumber) using [14C]malonate assessed as inhibition of [14C]-labeled 16C fatty acid production at 30 uM after 3 hr by liquid scintillation counting; assay type: functional, organism-based
Hordeum vulgare [13] = test: Inhibition of fatty acid synthesis in Hordeum vulgare (barley) using [14C]malonate assessed as inhibition of [14C]-labeled 16C fatty acid production at 30 uM after 3 hr by liquid scintillation counting; assay type: functional, organism-based
Cucumis sativus [14] = test: Inhibition of fatty acid synthesis in Cucumis sativus (cucumber) assessed as inhibition of [14C]malonate incoporation in total fatty acids at 30 uM measured after 3 hr by liquid scintillation counting; assay type: functional, organism-based
Hordeum vulgare [15] = test: Inhibition of fatty acid synthesis in Hordeum vulgare (barley) assessed as inhibition of [14C]malonate incoporation in total fatty acids at 30 uM measured after 3 hr by liquid scintillation counting; assay type: functional, organism-based
Cucumis sativus [16] = test: Inhibition of fatty acid synthesis in Cucumis sativus (cucumber) using [14C]acetate assessed as [14C]-labeled 24C fatty acid level at 30 uM after 3 hr by liquid scintillation counting (reference value: 6.5 +/- 1%); assay type: functional; parameters: scale not given: the % may be the effect or the level left
Hordeum vulgare [17] = test: Inhibition of fatty acid synthesis in Hordeum vulgare (barley) using [14C]acetate assessed as [14C]-labeled 20C fatty acid level at 30 uM after 3 hr by liquid scintillation counting (reference value: 4.7 +/- 1.6%); assay type: functional; parameters: scale not given: the % may be the effect or the level left
Cucumis sativus [18] = test: Inhibition of fatty acid synthesis in Cucumis sativus (cucumber) using [14C]acetate assessed as [14C]-labeled 18C fatty acid level at 30 uM after 3 hr by liquid scintillation counting (reference value: 41.2 +/- 1.1%); assay type: functional; parameters: scale not given: the % may be the effect or the level left
Hordeum vulgare [19] = test: Inhibition of fatty acid synthesis in Hordeum vulgare (barley) using [14C]acetate assessed as [14C]-labeled 18C fatty acid level at 30 uM after 3 hr by liquid scintillation counting (reference value: 60.3 +/- 1.3%); assay type: functional; parameters: scale not given: the % may be the effect or the level left
Cucumis sativus [20] = test: Inhibition of fatty acid synthesis in Cucumis sativus (cucumber) using [14C]acetate assessed as [14C]-labeled 16C fatty acid level at 30 uM after 3 hr by liquid scintillation counting (reference value: 29.2 +/- 3.5%); assay type: functional; parameters: scale not given: the % may be the effect or the level left
Hordeum vulgare [21] = test: Inhibition of fatty acid synthesis in Hordeum vulgare (barley) using [14C]acetate assessed as [14C]-labeled 16C fatty acid level at 30 uM after 3 hr by liquid scintillation counting (reference value: 29.5 +/- 1.3%); assay type: functional; parameters: scale not given: the % may be the effect or the level left
Cucumis sativus [22] = test: Inhibition of fatty acid synthesis in Cucumis sativus (cucumber) assessed as inhibition of [14C]acetate incoporation in total fatty acids at 30 uM measured as total disintegration per g of fresh weight after 3 hr by liquid scintillation counting (reference value: 6.4 +/- 1.2 dpm x 10^6 g'1 fresh wt); assay type: functional
Cucumis sativus [23] = test: Inhibition of fatty acid synthesis in Cucumis sativus (cucumber) using [14C]acetate assessed as [14C]-labeled 22C fatty acid level at 30 uM after 3 hr by liquid scintillation counting (reference value: 17.9 +/- 2.5%); assay type: functional; parameters: scale not given: the % may be the effect or the level left

SMILES: CCN(CC)C(=O)C(C)Oc1cccc2ccccc12 (stereo not drawn) [NAPROPAMIDE]
- Activity (Hordeum vulgare [1]): 5.2 ×10⁶ dpm
- inhibition (Cucumis sativus [2]): inactive
- inhibition (Hordeum vulgare [3]): inactive
- inhibition (Cucumis sativus [4]): inactive
- inhibition (Hordeum vulgare [5]): inactive
- inhibition (Cucumis sativus [6]): inactive
- inhibition (Hordeum vulgare [7]): inactive
- Activity (Hordeum vulgare [8]): 6.9%
- Activity (Cucumis sativus [9]): 5.5%
- inhibition (Cucumis sativus [10]): inactive
- inhibition (Hordeum vulgare [11]): inactive
- inhibition (Cucumis sativus [12]): inactive
- inhibition (Hordeum vulgare [13]): inactive
- inhibition (Cucumis sativus [14]): inactive
- inhibition (Hordeum vulgare [15]): inactive
- Activity (Cucumis sativus [16]): 5.9%
- Activity (Hordeum vulgare [17]): 7.6%
- Activity (Cucumis sativus [18]): 43.1%
- Activity (Hordeum vulgare [19]): 66.9%
- Activity (Cucumis sativus [20]): 26.5%
- Activity (Hordeum vulgare [21]): 18.7%
- Activity (Cucumis sativus [22]): 6.2 ×10⁶ dpm
- Activity (Cucumis sativus [23]): 19%

Source: ChEMBL document CHEMBL3044779, “The action of herbicides on fatty acid biosynthesis and elongation in barley and cucumber” (Pest Manag Sci, 2010)
